Measured values from patent US20070276011A1, “Plasminogen Activator Inhibitor-1 Inhibitor” (priority 2003, published 2007).

Target: recombinant human PAI-1 (Homo sapiens, UniProt P05121)
Assay: PAI-1 inhibitory activity, Test Method A (tPA fluorogenic substrate, Tris buffer pH8.0, 37 C)
Format: biochemical
Settings: 25 μM test compound; Test Method A

recombinant human PAI-1, sequence (P05121 24-402): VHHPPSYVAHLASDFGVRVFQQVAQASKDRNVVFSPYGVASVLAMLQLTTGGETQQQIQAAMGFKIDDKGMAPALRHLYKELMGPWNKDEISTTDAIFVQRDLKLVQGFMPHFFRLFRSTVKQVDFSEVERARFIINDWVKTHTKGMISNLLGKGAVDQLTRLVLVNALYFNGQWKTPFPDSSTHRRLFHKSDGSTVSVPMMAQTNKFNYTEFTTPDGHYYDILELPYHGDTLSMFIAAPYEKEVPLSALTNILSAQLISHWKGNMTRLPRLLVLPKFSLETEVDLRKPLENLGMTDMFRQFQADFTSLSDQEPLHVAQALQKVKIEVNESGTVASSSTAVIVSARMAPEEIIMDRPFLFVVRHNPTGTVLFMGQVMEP

Row | SMILES | Inhibitory Ratio at 25 μM (%)
1 | COCC1=NN(c2cc(Cl)cc(Cl)c2)C(=O)C1=Cc1ccc(Oc2ccccc2)cc1 [compound 527] | 59
2 | COc1ccc(NC(=O)c2cc(C=C3SC(=O)N(CCc4ccc(Cl)cc4)C3=O)ccc2O)cc1OC [compound 375, 5-[4-Hydroxy-3-(3,4-dimethoxyphenylcarbamoyl)benzylidene]-3-[2-(4-chlorophenyl)ethyl]thiazolidine-2,4-dione] | 63
3 | O=C1SC(=Cc2cccc(O)c2O)C(=O)N1Cc1cccc(Nc2ccccc2)c1 [compound 319] | >99
4 | CC(C)C1=NN(c2cc(Cl)cc(Cl)c2)C(=O)C1=Cc1ccc(O)cc1O [compound 505] | 93
5 | CCOC1=NN(c2ccc([N+](=O)[O-])cc2)C(=O)C1=Cc1cc(C=Cc2ccccc2)ccc1O[Si](C)(C)C(C)(C)C [compound 543] | >99
6 | CC(C)C1=NN(c2ccc(C=Cc3ccccn3)cc2)C(=O)C1=Cc1cc(O)c(O)cc1O [compound 545] | 74
7 | CCOC1=NN(c2ccc([N+](=O)[O-])cc2)C(=O)C1=Cc1c2ccccc2cc2ccccc12 [compound 547] | 62
8 | COc1ccc(C=C2SC(=O)N(Cc3ccc(Cl)c(Cl)c3)C2=O)cc1C(F)(F)F [compound 333] | 73
9 | COc1cc(C=C2C(=O)N(c3ccc(Cl)c(Cl)c3)N=C2C(C)C)cc(C(=O)O)c1O [compound 559] | >99
10 | O=C(O)c1ccc(NC(=O)c2cccc(C=C3SC(=O)N(Cc4ccc(Cl)c(Cl)c4)C3=O)c2)cc1 [compound 389, 5-[3 (4-Carboxyphenylcarbamoyl)benzylidene]-3-(3,4-dichlorobenzyl)thiazolidine-2,4-dione] | >99
11 | O=C1C(=Cc2cc(O)c(O)c(O)c2)SC(=S)N1Cc1ccc(Cl)c(Cl)c1 [compound 303] | >99
12 | COc1ccc(NC(=O)c2cc(C=C3SC(=O)N(Cc4cc(C(F)(F)F)cc(C(F)(F)F)c4)C3=O)ccc2O)cc1OC [compound 383, 5-[4-Hydroxy-3-(3,4-dimethoxyphenylcarbamoyl)benzylidene]-3-[3,5-bis(trifluoromethyl)benzyl]thiazolidine-2,4-dione] | 73
13 | COc1ccc(Cl)cc1NC(=O)c1cc(C=C2SC(=O)N(Cc3ccc(Cl)c(Cl)c3)C2=O)ccc1O [compound 454] | >99
14 | COc1cc(C=C2SC(=O)N(Cc3ccc(Cl)c(Cl)c3)C2=O)cc([N+](=O)[O-])c1O [compound 346, 5-(3-methoxy-4-hydroxy-5-nitrobenzylidene)-3-(3,4-dichlorobenzyl)thiazolidine-2,4-dione] | >99
15 | COc1ccc(NC(=O)c2cccc(C=C3SC(=O)N(Cc4ccc(Cl)c(Cl)c4)C3=O)c2)cc1OC [compound 357] | 82
16 | COc1ccc(NC(=O)c2cc(C=C3SC(=O)N(Cc4ccc(Cl)c(Cl)c4)C3=O)ccc2O)cc1 [compound 353, 5-[4-hydroxy-3-(4-methoxyphenylcarbamoyl)benzylidene]-3-(3,4-dichlorobenzyl)thiazolidine-2,4-dione] | 66
17 | O=C(Nc1cc(C(F)(F)F)ccc1Cl)c1cc(C=C2SC(=O)N(Cc3ccc(Cl)c(Cl)c3)C2=O)cc(O)c1O [compound 469] | >99
18 | COc1cc(Br)cc(C=C2C(=O)N(c3cc(Cl)cc(Cl)c3)N=C2C(C)C)c1O [compound 528] | >99
19 | Cc1ccc(O)cc1NC(=O)c1cc(C=C2SC(=O)N(Cc3ccc(Cl)c(Cl)c3)C2=O)ccc1O [compound 456] | 83
20 | CC(C)C1=NN(c2cc(Cl)ccc2Cl)C(=O)C1=Cc1cc(O)c(O)cc1O [compound 502, 4-(2,4,5-Trihydroxybenzylidene)-1-(2,5-dichlorophenyl)-3-isopropyl-2-pyrazolin-5-one] | 66
21 | COC(=O)c1ccc(Cl)cc1NC(=O)c1cc(C=C2SC(=O)N(Cc3ccc(Cl)c(Cl)c3)C2=O)ccc1O [compound 453, 5-[4-hydroxy-3-(2-methoxycarbonyl-5-chlorophenylcarbamoyl)-benzylidene]-3-(3,4-dichlorobenzyl)thiazolidine-2,4-dione] | >99
22 | COC(=O)c1cc(C=C2SC(=O)N(Cc3ccc(Cl)cc3Cl)C2=O)cc(OC)c1O [compound 429] | 83
23 | CC(C)C1=NN(c2ccc(Cl)c(Cl)c2)C(=O)C1=Cc1cc(O)ccc1[N+](=O)[O-] [compound 558] | >99
24 | CCOC(=O)CCCC1=NN(c2ccc(Cl)cc2)C(=O)C1=Cc1cc(Br)ccc1O [compound 516, 4-(2-Hydroxy-5-bromobenzylidene)-1-(4-chlorophenyl)-3-[3-(ethoxycarbonyl)propyl]-2-pyrazolin-5-one] | 86
25 | CCOC1=NN(c2ccc([N+](=O)[O-])cc2)C(=O)C1=Cc1c(Br)ccc(O)c1O [compound 551] | 75
26 | CC(C)C1=NN(c2ccc(C(=O)O)cc2)C(=O)C1=Cc1ccc(C=Cc2ccccc2)cc1 [compound 536] | >99

Same assay, conditions: 50% inhibitory concentration of PAI-1 activity, according to the aforementioned method

Row | SMILES | IC50 [nM]
27 | O=C1C(=Cc2cc(O)c(O)c(O)c2)SC(=S)N1Cc1ccc(Cl)c(Cl)c1 [compound 303] | 390

Same assay, conditions: test compound 25 μM; Test Method A

Row | SMILES | Inhibitory Ratio at 25 μM (%)
28 | O=C1C(=Cc2ccc(Br)o2)C(c2ccccc2)=NN1c1cccc([N+](=O)[O-])c1 [compound 199] | 85
29 | C=CCOc1ccc(C=C2C(=O)N(c3ccc(Cl)c(C(=O)O)c3)N=C2C)cc1OC [compound 169] | 27
30 | COc1cc(C=C2SC(=O)N(Cc3ccc(Cl)c(Cl)c3)C2=O)cc(O)c1O [compound 38] | >99
31 | Cc1cccc(N2N=C(C(C)C)C(=Cc3cc(O)c(O)c(O)c3)C2=O)c1 [compound 157] | 37
32 | O=C1SC(=Cc2cccc(O)c2O)C(=O)N1Cc1ccc(-c2ccccc2)cc1 [compound 20, 5-(2,3-Dihydroxybenzylidene)-3-(4-phenylbenzyl)thiazolidine-2,4-dione] | >99
33 | CC(C)C1=NN(c2cc(Cl)cc(Cl)c2)C(=O)C1=Cc1ccc(O)c(O)c1 [compound 107] | >99
34 | COC(=O)c1cccc(N2N=C(C(C)C)C(=Cc3ccc4c(c3)OCO4)C2=O)c1 [compound 208] | 47
35 | CCOC(=O)C1=NN(c2cccc(C(=O)OCC)c2)C(=O)C1=Cc1ccc(-c2cc(Cl)cc(Cl)c2)o1 [compound 185] | 89
36 | O=C1SC(=Cc2ccc(O)c(O)c2)C(=O)N1Cc1cc(Br)cc(Br)c1 [compound 46, 5-(3,4-Dihydroxybenzylidene)-3-(3,5-dibromobenzyl)thiazolidine-2,4-dione] | >99
37 | CC(C)(C)C1=NN(c2cc(Cl)cc(Cl)c2)C(=O)C1=Cc1ccc(O)c(O)c1 [compound 138, 4-(3,4-Dihydroxybenzylidene)-1-(3,5-dichlorophenyl)-3-(tert-butyl)-2-pyrazolin-5-one] | >99
38 | O=C1C(=Cc2ccc(O)c(O)c2O)C(c2ccccc2)=NN1c1ccc(Cl)c(Cl)c1 [compound 148] | 62
39 | O=C1C(=Cc2ccc(Cl)c(Cl)c2)C(c2ccccc2)=NN1c1cccc([N+](=O)[O-])c1 [compound 201] | >99
40 | COC(=O)c1cccc(N2N=C(c3ccccc3)C(=Cc3ccc(O)c(O)c3)C2=O)c1 [compound 154, 4-(3,4-Dihydroxybenzylidene)-1-[3-(methoxycarbonyl)phenyl]-3-phenyl-2-pyrazolin-5-one] | >99
41 | CC1=NN(c2ccc(S(N)(=O)=O)cc2)C(=O)C1=Cc1ccc(-c2cccc(Cl)c2)o1 [compound 186] | 30
42 | COC(=O)c1cccc(N2N=C(c3ccccc3)C(=Cc3ccc(-c4cc(Cl)cc(Cl)c4)o3)C2=O)c1 [compound 180] | 90
43 | CC(C)C1=NN(c2cccc([N+](=O)[O-])c2)C(=O)C1=Cc1ccc(Br)o1 [compound 200, 4-[(5-Bromofuran-2-yl)methylene]-1-(3-nitrophenyl)-3-isopropyl-2-pyrazolin-5-one] | 53
44 | O=C1SC(=Cc2ccc(O)c(O)c2)C(=O)N1Cc1cc(Cl)cc(Cl)c1 [compound 12] | >99
45 | CC1=NN(c2ccc(Cl)c(C(=O)O)c2)C(=O)C1=Cc1ccc(-c2cccc(Cl)c2C)o1 [compound 190] | 81
46 | CC(C)C1=NN(c2cc(Cl)cc(Cl)c2)C(=O)C1=Cc1ccc(Br)cc1 [compound 207] | 46
47 | O=C1SC(=Cc2cc(Br)cc(Br)c2O)C(=O)N1c1ccccc1 [compound 1] | >99
48 | Cc1ccc(N2N=C(C(C)C)C(=Cc3ccc(O)c(O)c3)C2=O)cc1Cl [compound 119, 4-(3,4-Dihydroxybenzylidene)-1-(3-chloro-4-methylphenyl)-3-isopropyl-2-pyrazolin-5-one] | >99
49 | O=C1SC(=Cc2cc(O)c(O)c(O)c2)C(=O)N1Cc1cc(Cl)cc(Cl)c1 [compound 54] | >99
50 | O=C(O)c1cccc(N2N=C(C(F)(F)F)C(=Cc3ccc(-c4cc(Cl)cc(Cl)c4)s3)C2=O)c1 [compound 184] | 43
51 | COc1ccc(N2C(=O)C(=Cc3ccc(O)c(O)c3)SC2=S)cc1OC [compound 76, 5-(3,4-Dihydroxybenzylidene)-3-(3,4-dimethoxyphenyl)rhodanine] | 56
52 | O=C1C(=Cc2ccc(O)c(O)c2O)C(C(F)(F)F)=NN1c1cc(Cl)cc(Cl)c1 [compound 150] | >99
53 | CC1=NN(c2cccc(Cl)c2)C(=O)C1=Cc1ccc(O)c(O)c1 [compound 117] | 46
54 | O=C1SC(=Cc2cccc(O)c2O)C(=O)N1Cc1cccc(Br)c1 [compound 34, 5-(2,3-Dihydroxybenzylidene)-3-(3-bromobenzyl)thiazolidine-2,4-dione] | >99
55 | COc1cc(C=C2C(=O)N(c3cccc(Cl)c3)N=C2C)cc(O)c1O [compound 124] | 33
56 | O=C1SC(=Cc2cc(O)ccc2[N+](=O)[O-])C(=O)N1Cc1ccc(Cl)c(Cl)c1 [compound 39] | >99
